Source: patent US20110313156A1 (BOEHRINGER INGELHEIM INTERNATIONAL GMBH, priority 2008, published 2011)

The compounds below were run against T1, His6-PDK1 (aa 52-556) (Homo sapiens, UniProt O15530) (assay: PDK1 kinase assay III (with Tween 20)). Conditions: compound at 10 μM; PDK1 kinase assay III (values without asterisk); read-out: % CTL (residual activity of the enzyme relative to DMSO control).
T1 construct: 15 μL His6-PDK1 (aa 52-556) 3.33 ng/well); host or cells: baculovirus-infected insect cells
T1 sequence (O15530 52-556): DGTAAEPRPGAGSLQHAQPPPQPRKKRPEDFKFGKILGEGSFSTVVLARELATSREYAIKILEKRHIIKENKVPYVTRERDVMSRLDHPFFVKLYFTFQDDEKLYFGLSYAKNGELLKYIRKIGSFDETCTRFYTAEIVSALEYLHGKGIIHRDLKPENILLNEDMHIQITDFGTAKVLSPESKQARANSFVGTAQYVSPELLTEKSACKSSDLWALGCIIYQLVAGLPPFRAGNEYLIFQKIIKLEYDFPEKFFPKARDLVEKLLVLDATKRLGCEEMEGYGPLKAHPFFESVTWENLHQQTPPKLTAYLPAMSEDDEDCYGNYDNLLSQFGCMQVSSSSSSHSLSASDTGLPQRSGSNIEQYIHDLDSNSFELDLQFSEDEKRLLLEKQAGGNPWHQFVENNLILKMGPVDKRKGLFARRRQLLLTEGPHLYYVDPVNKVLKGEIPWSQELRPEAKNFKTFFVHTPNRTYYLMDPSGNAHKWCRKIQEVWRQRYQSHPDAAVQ
Format: biochemical
Method: Purified enzyme may be obtained for example from the University of Dundee, Scotland.
Another PDK1 assay was developed which by comparison with PDK1 assay 1 additionally contains Tween 20:
The final concentration of Tween 20 is 0.005%.
The reaction is started by adding the ATP solution and the mixture is incubated for 90 min at ambient temperature; at the start of the reaction the dishes are shaken gently. The reaction is stopped by the addition of 50 μL/well of 500 mM phosphoric acid (H3PO4) and incubated for about 20 min at ambient temperature. […] The measured data are evaluated using Graphpad Prism software.
The % CTL values indicate the residual activity of the enzyme after the addition of the inhibitory compound in the solvent DMSO in relation to the enzyme activity in the solvent DMSO without the addition of a compound (control). The majority of the values were determined using the PDK1 kinase assay III described hereinbefore. The values marked with an asterisk (* or**) were determined using the PDK1 kinase assay II described hereinbefore (one asterisk→incubation for 24 h; two asterisks→incubation for 5 min)

SMILES	remaining activity at 10 µM
O=C1Nc2cc(/C=C/CNC(=O)c3cncn(Cc4ccc(F)c(F)c4)c3=O)ccc2/C1=C/c1ncc[nH]1 [I-37, 1-(3,4-difluorobenzyl)-N-{(2E)-3-[(3Z)-3-(1H-imidazol-2-ylmethylidene)-2-oxo-2,3-dihydro-1H-indol-6-yl]prop-2-en-1-yl}-6-oxo-1,6-dihydropyrimidine-5-carboxamide]	16.6%
Cc1c[nH]c(/C=C2\C(=O)Nc3cc(/C=C/CNC(=O)c4cncn(Cc5ccc(F)c(F)c5)c4=O)ccc32)n1 [I-38, 1-(3,4-difluorobenzyl)-N-[(2E)-3-{(3Z)-3-[(4-methyl-1H-imidazol-2-yl)methylidene]-2-oxo-2,3-dihydro-1H-indol-6-yl}prop-2-en-1-yl]-6-oxo-1,6-dihydropyrimidine-5-carboxamide]	20.5%
Cc1nc[nH]c1/C=C1\C(=O)Nc2cc(/C=C/CNC(=O)c3c(C)n(C)n(Cc4ccccc4)c3=O)ccc21 [I-39, 2-benzyl-1,5-dimethyl-N-[(2E)-3-{(3Z)-3-[(4-methyl-1H-imidazol-5-yl)methylidene]-2-oxo-2,3-dihydro-1H-indol-6-yl}prop-2-en-1-yl]-3-oxo-2,3-dihydro-1H-pyrazole-4-carboxamide]	18.6%
Cc1c(C(=O)NC/C=C/c2ccc3c(c2)NC(=O)/C3=C\c2ncc[nH]2)c(=O)n(Cc2ccc(F)c(F)c2)n1C [I-41, 2-(3,4-difluorobenzyl)-N-{(2E)-3-[(3Z)-3-(1H-imidazol-2-ylmethylidene)-2-oxo-2,3-dihydro-1H-indol-6-yl]prop-2-en-1-yl}-1,5-dimethyl-3-oxo-2,3-dihydro-1H-pyrazole-4-carboxamide]	16.6%
Cc1c[nH]c(/C=C2\C(=O)Nc3cc(/C=C/CNC(=O)c4c(C)n(C)n(Cc5ccc(F)c(F)c5)c4=O)ccc32)n1 [I-42, 2-(3,4-difluorobenzyl)-1,5-dimethyl-N-[(2E)-3-{(3Z)-3-[(4-methyl-1H-imidazol-2-yl)methylidene]-2-oxo-2,3-dihydro-1H-indol-6-yl}prop-2-en-1-yl]-3-oxo-2,3-dihydro-1H-pyrazole-4-carboxamide]	15.7%
Cn1cc(C(=O)NC/C=C/c2ccc3c(c2)NC(=O)/C3=C\c2cnc[nH]2)c(=O)n(Cc2ccc(F)c(F)c2)c1=O [I-43]	20.3%
O=C1Nc2cc(C#CCNC(=O)c3cncn(Cc4ccc(F)c(F)c4)c3=O)ccc2/C1=C/c1cnc[nH]1 [I-44, 1-(3,4-difluorobenzyl)-N-{3-[(3Z)-3-(1H-imidazol-5-ylmethylidene)-2-oxo-2,3-dihydro-1H-indol-6-yl]prop-2-yn-1-yl}-6-oxo-1,6-dihydropyrimidine-5-carboxamide]	15.6%
O=C1Nc2cc(/C=C/CNC(=O)c3cncn(Cc4ccc(F)c(F)c4)c3=O)cc(F)c2/C1=C/c1cnc[nH]1 [I-46, 1-(3,4-difluorobenzyl)-N-{(2E)-3-[(3Z)-4-fluoro-3-(1H-imidazol-5-ylmethylidene)-2-oxo-2,3-dihydro-1H-indol-6-yl]prop-2-en-1-yl}-6-oxo-1,6-dihydropyrimidine-5-carboxamide]	15.6%
Cc1nc[nH]c1/C=C1\C(=O)Nc2cc(/C=C/CNC(=O)c3cncn(Cc4ccc(F)c(F)c4)c3=O)cc(F)c21 [I-47, 1-(3,4-difluorobenzyl)-N-[(2E)-3-{(3Z)-4-fluoro-3-[(4-methyl-1H-imidazol-5-yl)methylidene]-2-oxo-2,3-dihydro-1H-indol-6-yl}prop-2-en-1-yl]-6-oxo-1,6-dihydropyrimidine-5-carboxamide]	17.2%
Cc1c[nH]c(/C=C2\C(=O)Nc3cc(/C=C/CNC(=O)c4cncn(Cc5ccc(F)c(F)c5)c4=O)cc(F)c32)n1 [I-48, 1-(3,4-difluorobenzyl)-N-[(2E)-3-{(3Z)-4-fluoro-3-[(4-methyl-1H-imidazol-2-yl)methylidene]-2-oxo-2,3-dihydro-1H-indol-6-yl}prop-2-en-1-yl]-6-oxo-1,6-dihydropyrimidine-5-carboxamide]	23.1%
NCc1[nH]cnc1/C=C1\C(=O)Nc2cc(/C=C/CNC(=O)c3cncn(Cc4ccc(F)c(F)c4)c3=O)ccc21 [I-49, N-{(2E)-3-[(3Z)-3-{[5-(aminomethyl)-1H-imidazol-4-yl]methylidene}-2-oxo-2,3-dihydro-1H-indol-6-yl]prop-2-en-1-yl}-1-(3,4-difluorobenzyl)-6-oxo-1,6-dihydropyrimidine-5-carboxamide]	12.6%
Cc1c(C(=O)NC/C=C/c2ccc3c(c2)NC(=O)/C3=C\c2nc[nH]c2CN)c(=O)n(Cc2ccc(F)c(F)c2)n1C [I-50, N-{(2E)-3-[(3Z)-3-{[5-(aminomethyl)-1H-imidazol-4-yl]methylidene}-2-oxo-2,3-dihydro-1H-indol-6-yl]prop-2-en-1-yl}-2-(3,4-difluorobenzyl)-1,5-dimethyl-3-oxo-2,3-di-hydro-1H-pyrazole-4-carboxamide]	16.6%

Next, values leading:

remaining activity at 10 µM	SMILES
13%	Cc1c(C(=O)NCC#Cc2ccc3c(-c4ccc[nH]4)n[nH]c3c2)c(=O)n(Cc2ccc(F)c(F)c2)n1C [II-1, 2-(3,4-difluorobenzyl)-1,5-dimethyl-3-oxo-N-{3-[3-(1H-pyrrol-2-yl)-1H-indazol-6-yl]prop-2-yn-1-yl}-2,3-dihydro-1H-pyrazole-4-carboxamide]
12.5%	O=C(NCC#Cc1ccc2cn[nH]c2c1)c1cncn(Cc2ccc(F)c(F)c2)c1=O [II-2, 1-(3,4-difluorobenzyl)-N-[3-(1H-indazol-6-yl)prop-2-yn-1-yl]-6-oxo-1,6-dihydropyrimidine-5-carboxamide]
12.4%	Cc1c(C(=O)NCC#Cc2ccc3cn[nH]c3c2)c(=O)n(Cc2ccc(F)c(F)c2)n1C [II-3, 2-(3,4-difluorobenzyl)-N-[3-(1H-indazol-6-yl)prop-2-yn-1-yl]-1,5-dimethyl-3-oxo-2,3-dihydro-1H-pyrazole-4-carboxamide]
16.9%	Cc1c(C(=O)NCC#Cc2ccc3c(-c4ccccc4)n[nH]c3c2)c(=O)n(Cc2ccc(F)c(F)c2)n1C [II-4, 2-(3,4-difluorobenzyl)-1,5-dimethyl-3-oxo-N-[3-(3-phenyl-1H-indazol-6-yl)prop-2-yn-1-yl]-2,3-dihydro-1H-pyrazole-4-carboxamide]
22.7%	Cc1c(C(=O)NCC#Cc2ccc3c(-c4ccco4)n[nH]c3c2)c(=O)n(Cc2ccc(F)c(F)c2)n1C [II-5, 2-(3,4-difluorobenzyl)-N-{3-[3-(furan-2-yl)-1H-indazol-6-yl]prop-2-yn-1-yl}-1,5-dimethyl-3-oxo-2,3-dihydro-1H-pyrazole-4-carboxamide]
21.4%	Cc1c(C(=O)NC/C=C\c2ccc3c(-c4ccco4)n[nH]c3c2)c(=O)n(Cc2ccc(F)c(F)c2)n1C [II-6, 2-(3,4-difluorobenzyl)-N-{(2Z)-3-[3-(furan-2-yl)-1H-indazol-6-yl]prop-2-en-1-yl}-1,5-dimethyl-3-oxo-2,3-dihydro-1H-pyrazole-4-carboxamide]
27.4%	Cc1c(C(=O)NC/C=C\c2ccc3cn[nH]c3c2)c(=O)n(Cc2ccc(F)c(F)c2)n1C [II-7, 2-(3,4-difluorobenzyl)-N-[(2Z)-3-(1H-indazol-6-yl)prop-2-en-1-yl]-1,5-dimethyl-3-oxo-2,3-dihydro-1H-pyrazole-4-carboxamide]
16.5%	Cc1c(C(=O)NCC#Cc2ccc3c(-c4ccc(CN(C)C)cc4)n[nH]c3c2)c(=O)n(Cc2ccc(F)c(F)c2)n1C [II-8, 2-(3,4-difluorobenzyl)-N-[3-(3-{4-[(dimethylamino)methyl]phenyl}-1H-indazol-6-yl)prop-2-yn-1-yl]-1,5-dimethyl-3-oxo-2,3-dihydro-1H-pyrazole-4-carboxamide]
10.7%	CN(C)Cc1ccc(-c2n[nH]c3cc(C#CCNC(=O)c4cncn(Cc5ccc(F)c(F)c5)c4=O)ccc23)cc1 [II-9, 1-(3,4-difluorobenzyl)-N-[3-(3-{4-[(dimethylamino)methyl]phenyl}-1H-indazol-6-yl)prop-2-yn-1-yl]-6-oxo-1,6-dihydropyrimidine-5-carboxamide]
19.1%	Cc1c(C(=O)NCC#Cc2ccc3nc(Nc4ccccc4)ncc3c2)c(=O)n(Cc2ccc(F)c(F)c2)n1C [III-15, 2-(3,4-difluorobenzyl)-1,5-dimethyl-3-oxo-N-{3-[2-(phenylamino)quinazolin-6-yl]prop-2-yn-1-yl}-2,3-dihydro-1H-pyrazole-4-carboxamide]
9.5%	CN(C)Cc1ccc(Nc2ncc3cc(C#CCNC(=O)c4cncn(Cc5ccc(F)c(F)c5)c4=O)ccc3n2)cc1 [III-16, 1-(3,4-difluorobenzyl)-N-{3-[2-({4-[(dimethylamino)methyl]phenyl}amino)quinazolin-6-yl]prop-2-yn-1-yl}-6-oxo-1,6-dihydropyrimidine-5-carboxamide]
